Experimental data published in the NIST ThermoML archive (doi:10.1016/j.jct.2017.09.005).
Where “and” joins values, the source holds several entries; their conditions need not be identical. Equal values may be shown once.

What was measured:
[1] = for vapor or sublimation pressure: Twin ebulliometer; for molar entropy: 101.33 kPa, Small sample (50 mg) DSC; for Critical density: DSC; for Critical temperature: DTA
[2] = molar heat capacity at saturation pressure; details: Liquid, Small sample (50 mg) DSC

Cc1c[nH]c(C)c1 [2,4-dimethyl-1H-pyrrole]
[1]
Details | mass density [kg/m3]
323.14 K, Liquid, Vibrating tube method | 895.5
348.13 K, Liquid, Vibrating tube method | 874.8
373.12 K, Liquid, Vibrating tube method | 853
398.12 K, Liquid, Vibrating tube method | 830.6
423.11 K, Liquid, Vibrating tube method | 807.2
448.11 K, Liquid, Vibrating tube method | 781.3
645.3 K, Gas, From heat capacities measured by DSC | 159
648.6 K, Gas, From heat capacities measured by DSC | 220
649 K, Gas, From heat capacities measured by DSC | 248
650 K, Liquid, From heat capacities measured by DSC | 413
656.5 K, Liquid, From heat capacities measured by DSC | 292

[1], Liquid
Details | molar entropy [J/K/mol] | vapor or sublimation pressure
338.25 K | – | 1.995 kPa
343.72 K | – | 2.666 kPa
351.75 K | – | 4 kPa
357.76 K | – | 5.337 kPa
366.62 K | – | 7.992 kPa
373.28 K | – | 10.66 kPa
378.68 K | – | 13.34 kPa
384.24 K | – | 16.66 kPa
388.88 K | – | 19.93 kPa
394.96 K | – | 25.02 kPa and 25.01 kPa
401.09 K | – | 31.17 kPa
407.25 K | – | 38.57 kPa
413.43 K | – | 47.37 kPa
419.66 K | – | 57.81 kPa
425.98 K | – | 70.24 kPa
432.21 K | – | 84.53 kPa
438.54 K | – | 101.33 kPa
440 K | 306.38 | –
444.91 K | – | 120.8 kPa
451.31 K | – | 143.27 kPa
457.75 K | – | 169.05 kPa
460 K | 317.25 | –
464.23 K | – | 198.53 kPa
470.74 K | – | 232.06 kPa
477.28 K | – | 270.07 kPa
480 K | 327.92 | –
500 K | 338.4 | –
520 K | 348.69 | –
540 K | 358.8 | –
560 K | 368.76 | –
580 K | 378.61 | –
600 K | 388.45 | –

Details | Critical density [kg/m3] | Critical temperature [K] | molar heat capacity [J/K/mol]
[1], Liquid | 285.8 | 653 | –
[2], 440 K | – | – | 241.31
[2], 460 K | – | – | 247.84
[2], 480 K | – | – | 253.77
[2], 500 K | – | – | 259.54
[2], 520 K | – | – | 265.15
[2], 540 K | – | – | 270.8
[2], 560 K | – | – | 276.99
[2], 580 K | – | – | 284.79
[2], 600 K | – | – | 297.37

Cc1ccc(C)[nH]1 [2,5-dimethyl-1H-pyrrole]
[1]
Details | mass density [kg/m3]
323.14 K, Liquid, Vibrating tube method | 910.8
348.13 K, Liquid, Vibrating tube method | 890.3
373.12 K, Liquid, Vibrating tube method | 867.7
398.12 K, Liquid, Vibrating tube method | 843.9
423.11 K, Liquid, Vibrating tube method | 819.6
448.11 K, Liquid, Vibrating tube method | 793.5
473.11 K, Liquid, Vibrating tube method | 766.5
498.11 K, Liquid, Vibrating tube method | 738.1
508.11 K, Liquid, Vibrating tube method | 725.6
650 K, Gas, From heat capacities measured by DSC | 144
660.8 K, Gas, From heat capacities measured by DSC | 257
661.5 K, Liquid, From heat capacities measured by DSC | 334
661.7 K, Liquid, From heat capacities measured by DSC | 299

[1], Liquid
Details | molar entropy [J/K/mol] | vapor or sublimation pressure [kPa]
341.46 K | – | 1.997
354.8 K | – | 3.994
360.76 K | – | 5.333
369.58 K | – | 8.007
376.17 K | – | 10.67
380 K | 263.56 | –
381.49 K | – | 13.34
386.98 K | – | 16.66
391.56 K | – | 19.93
397.58 K | – | 25.02
400 K | 275.4 | –
403.63 K | – | 31.18
409.71 K | – | 38.56
415.81 K | – | 47.35
420 K | 286.97 | –
421.96 K | – | 57.8
428.14 K | – | 70.1
434.36 K | – | 84.53
440 K | 298.28 | –
440.62 K | – | 101.35
446.89 K | – | 120.78
453.2 K | – | 143.21
459.55 K | – | 169.03
460 K | 309.34 | –
465.94 K | – | 198.49
472.36 K | – | 232.03
478.82 K | – | 270.08
480 K | 320.16 | –
500 K | 330.75 | –
520 K | 341.13 | –
540 K | 351.34 | –
560 K | 361.4 | –
580 K | 371.4 | –
600 K | 381.43 | –

Details | Critical density [kg/m3] | Critical temperature [K] | molar heat capacity [J/K/mol]
[1], Liquid | 288.6 | 662 | –
[2], 380 K | – | – | 227.58
[2], 400 K | – | – | 234.06
[2], 420 K | – | – | 240.2
[2], 440 K | – | – | 246
[2], 460 K | – | – | 251.53
[2], 480 K | – | – | 256.87
[2], 500 K | – | – | 262.15
[2], 520 K | – | – | 267.56
[2], 540 K | – | – | 273.45
[2], 560 K | – | – | 280.39
[2], 580 K | – | – | 289.72
[2], 600 K | – | – | 303.59

Cn1cccc1 [N-methylpyrrole]
[1]
Details | mass density [kg/m3]
323.14 K, Liquid, Vibrating tube method | 879.5
348.13 K, Liquid, Vibrating tube method | 854.2
373.12 K, Liquid, Vibrating tube method | 828.2
398.12 K, Liquid, Vibrating tube method | 800.7
423.11 K, Liquid, Vibrating tube method | 772.1
448.11 K, Liquid, Vibrating tube method | 741.1
582.9 K, Gas, From heat capacities measured by DSC | 137
592 K, Gas, From heat capacities measured by DSC | 201
592.7 K, Gas, From heat capacities measured by DSC | 220
593.2 K, Liquid, From heat capacities measured by DSC | 382
596.1 K, Gas, From heat capacities measured by DSC | 257
596.2 K, Liquid, From heat capacities measured by DSC | 328
596.5 K, Liquid, From heat capacities measured by DSC | 337

[1], Liquid
Details | molar entropy [J/K/mol]
360 K | 230.1
380 K | 239.15
400 K | 248.02
420 K | 256.74
440 K | 265.36
460 K | 273.88
480 K | 282.3
500 K | 290.66
520 K | 298.96

Details | Critical density [kg/m3] | Critical temperature [K] | molar heat capacity [J/K/mol]
[1], Liquid | 299.8 | 597 | –
[2], 360 K | – | – | 164.66
[2], 380 K | – | – | 170.08
[2], 400 K | – | – | 175.89
[2], 420 K | – | – | 182.02
[2], 440 K | – | – | 188.36
[2], 460 K | – | – | 194.81
[2], 480 K | – | – | 201.34
[2], 500 K | – | – | 208.14
[2], 520 K | – | – | 215.72

c1cc[nH]c1 [pyrrole]
[1]
Details | mass density [kg/m3]
323.14 K, Liquid, Vibrating tube method | 943.9
348.13 K, Liquid, Vibrating tube method | 921.2
373.12 K, Liquid, Vibrating tube method | 897.8
398.12 K, Liquid, Vibrating tube method | 873.5
423.11 K, Liquid, Vibrating tube method | 847.6
448.11 K, Liquid, Vibrating tube method | 820.2
468.11 K, Liquid, Vibrating tube method | 796.1
604.6 K, Gas, From heat capacities measured by DSC | 104
623.7 K, Gas, From heat capacities measured by DSC | 148
632.4 K, Gas, From heat capacities measured by DSC | 220
633.5 K, Liquid, From heat capacities measured by DSC | 395
635.4 K, Liquid, From heat capacities measured by DSC | 329
637.8 K, Gas, From heat capacities measured by DSC | 271

[1], Liquid
Details | molar entropy [J/K/mol]
360 K | 181.95
380 K | 189.82
400 K | 197.54
420 K | 205.12
440 K | 212.58
460 K | 219.91
480 K | 227.13
500 K | 234.23
520 K | 241.22
540 K | 248.11

Details | Critical density [kg/m3] | Critical temperature [K] | molar heat capacity [J/K/mol]
[1], Liquid | 314.2 | 638.5 | –
[2], 360 K | – | – | 143.21
[2], 380 K | – | – | 148.11
[2], 400 K | – | – | 152.99
[2], 420 K | – | – | 157.84
[2], 440 K | – | – | 162.62
[2], 460 K | – | – | 167.28
[2], 480 K | – | – | 171.79
[2], 500 K | – | – | 176.14
[2], 520 K | – | – | 180.48
[2], 540 K | – | – | 185.06
